Laboratory results taken from ChEMBL document CHEMBL4346683 (Eur J Med Chem, 2019).
≈ marks a conversion by molar mass, not a printed value. Calls of active or inactive are those of the source. The rule behind the calls is not given here.

Legend:
Escherichia coli = assay: Antibacterial activity against Escherichia coli ATCC 25922 assessed as inhibition of bacterial growth incubated for 24 hrs by TTC double broth dilution method; format: functional; conditions: ATCC 25922, 24 h
Pseudomonas aeruginosa = assay: Antibacterial activity against Pseudomonas aeruginosa ATCC 27853 assessed as inhibition of bacterial growth incubated for 24 hrs by TTC double broth dilution method; format: functional; conditions: ATCC 27853, 24 h
Bacillus subtilis = assay: Antibacterial activity against Bacillus subtilis ATCC 530 assessed as inhibition of bacterial growth incubated for 24 hrs by TTC double broth dilution method; format: functional; conditions: ATCC 530, 24 h
Staphylococcus aureus [1] = assay: Antibacterial activity against Staphylococcus aureus ATCC 25923 assessed as inhibition of bacterial growth incubated for 24 hrs by TTC double broth dilution method; format: functional; conditions: ATCC 25923, 24 h
[2] = molecular target: T1, 3-oxoacyl-[acyl-carrier-protein] synthase 3 (Escherichia coli, UniProt C3TDZ2); assay: Inhibition of Escherichia coli FabH in presence of radiolabelled substrates and acetyl-coA by enzyme coupled FabD/FabH assay system
T1 sequence (C3TDZ2 whole entry): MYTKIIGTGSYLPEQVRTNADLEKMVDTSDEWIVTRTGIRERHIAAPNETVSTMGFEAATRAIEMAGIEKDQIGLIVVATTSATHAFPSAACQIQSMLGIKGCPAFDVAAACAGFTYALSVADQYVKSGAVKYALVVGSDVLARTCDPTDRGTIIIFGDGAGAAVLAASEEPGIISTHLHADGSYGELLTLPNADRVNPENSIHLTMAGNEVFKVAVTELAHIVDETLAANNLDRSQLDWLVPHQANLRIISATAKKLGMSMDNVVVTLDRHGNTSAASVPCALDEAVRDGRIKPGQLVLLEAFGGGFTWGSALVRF

[3] = Cytotoxicity against human 293T cells assessed as reduction in cell viability incubated for 24 hrs by MTT assay; format: cell-based; conditions: HEK-293T cells
[4] = Induction of hemolysis in human erythrocytes assessed as hemoglobin release incubated for 3 hrs by spectrophotometric analysis; format: cell-based; conditions: erythrocyte
[5] = tested on: Xanthomonas oryzae pv. oryzae; assay: Antibacterial activity against wild type Xanthomonas oryzae pv. oryzae KACC10331 expressing FabH assessed as reduction in bacterial growth; format: functional
[6] = tested on: Xanthomonas oryzae pv. oryzae; assay: Antibacterial activity against wild type Xanthomonas oryzae pv. oryzae KACC10331 expressing FabH assessed as reduction in bacterial growth at 5 ug/ml; format: functional, organism-based
Staphylococcus aureus [7] = assay: Antibacterial activity against Staphylococcus aureus; format: functional
Enterococcus faecium = assay: Antibacterial activity against Enterococcus faecium; format: functional
Streptococcus pneumoniae = assay: Antibacterial activity against Streptococcus pneumoniae; format: functional
[8] = Inhibition of Enterococcus faecalis FabH
[9] = Inhibition of Streptococcus pyogenes FabH

SMILES | MIC (Escherichia coli) [µg/mL] | MIC (Pseudomonas aeruginosa) [µg/mL] | MIC (Bacillus subtilis) [µg/mL] | MIC (Staphylococcus aureus [1]) [µg/mL] | IC50 [2] [µM] | CC50 at 24 h [3] [µM] | LC30 [4] [µg/mL] | MIC [5] [µg/mL] | inhibition [6] | MIC (Staphylococcus aureus [7]) [µg/mL] | MIC (Enterococcus faecium) [µg/mL] | MIC (Streptococcus pneumoniae) [µg/mL] | IC50 [8] [µM] | IC50 [9] [µM]
O=C(c1ccc(Cl)cc1)n1c(-c2cn(-c3ccccc3)nc2-c2ccc(C(F)(F)F)cc2)nc2ccccc21 | 62.5 (≈ 115 µM) | 31.2 (≈ 57.6 µM) | 62.5 (≈ 115 µM) | > 62.5 | 39.8 | 181 | > 10000 | – | – | – | – | – | – | –
Cc1cccc(C(=O)n2c(-c3cn(-c4ccccc4)nc3-c3ccc(C(F)(F)F)cc3)nc3ccccc32)c1 | 62.5 (≈ 120 µM) | 31.2 (≈ 59.8 µM) | 31.2 (≈ 59.8 µM) | > 62.5 | 34.9 | 154 | > 10000 | – | – | – | – | – | – | –
Cc1ccc(-c2nn(-c3ccccc3)cc2-c2nc3ccccc3n2C(=O)c2cccnc2)cc1 | 62.5 (≈ 137 µM) | 62.5 (≈ 137 µM) | 0.98 (≈ 2.15 µM) | 31.2 (≈ 68.6 µM) | 18.3 | 189 | > 10000 | – | – | – | – | – | – | –
Cc1ccc(-c2nn(-c3ccccc3)cc2-c2nc3ccccc3n2C(=O)c2cccc(C)c2)cc1 | 62.5 (≈ 133 µM) | 62.5 (≈ 133 µM) | 31.2 (≈ 66.7 µM) | > 62.5 | 33.2 | 195 | > 10000 | – | – | – | – | – | – | –
Cc1ccccc1C(=O)n1c(-c2cn(-c3ccccc3)nc2-c2ccc(C(F)(F)F)cc2)nc2ccccc21 | > 62.5 | > 62.5 | 62.5 (≈ 120 µM) | > 62.5 | 36.5 | 179 | > 10000 | – | – | – | – | – | – | –
Cc1ccc(-c2nn(-c3ccccc3)cc2-c2nc3ccccc3n2C(=O)c2cncc(C)c2)cc1 | 62.5 (≈ 133 µM) | 62.5 (≈ 133 µM) | 7.8 (≈ 16.6 µM) | 62.5 (≈ 133 µM) | 9.56 | 155 | > 10000 | – | – | – | – | – | – | –
Cc1ccc(-c2nn(-c3ccccc3)cc2-c2nc3ccccc3n2C(=O)c2ccncc2)cc1 | > 62.5 | 62.5 (≈ 137 µM) | 31.2 (≈ 68.6 µM) | 62.5 (≈ 137 µM) | 30.3 | 154 | > 10000 | – | – | – | – | – | – | –
Cc1ccc(-c2nn(-c3ccccc3)cc2-c2nc3ccccc3n2C(=O)c2ccc(Cl)cc2)cc1 | 62.5 (≈ 128 µM) | > 62.5 | 62.5 (≈ 128 µM) | > 62.5 | 38.2 | 216 | > 10000 | – | – | – | – | – | – | –
Cc1ccc(C(=O)n2c(-c3cn(-c4ccccc4)nc3-c3ccc(C(F)(F)F)cc3)nc3ccccc32)cc1 | 62.5 (≈ 120 µM) | > 62.5 | 3.9 (≈ 7.46 µM) | > 62.5 | 31.8 | 169 | > 10000 | – | – | – | – | – | – | –
O=C(c1cccnc1)n1c(-c2cn(-c3ccccc3)nc2-c2ccc(F)cc2)nc2ccccc21 | 0.98 (≈ 2.13 µM) | 0.49 (≈ 1.07 µM) | 0.98 (≈ 2.13 µM) | 0.98 (≈ 2.13 µM) | 1.22 | 216 | > 10000 | 0.49 (≈ 1.07 µM) | Active | – | – | – | – | –
Cc1ccc(-c2nn(-c3ccccc3)cc2-c2nc3ccccc3n2C(=O)c2ccccc2)cc1 | > 62.5 | 62.5 (≈ 138 µM) | 31.2 (≈ 68.8 µM) | > 62.5 | 28.2 | 204 | > 10000 | – | – | – | – | – | – | –
C[C@]12C[C@@]34C=CC(=O)[C@@](C)(CCC(=O)Nc5c(O)ccc(C(=O)O)c5O)[C@@H]3[C@H](C[C@@H]1C4)O2 | – | – | – | – | – | – | – | – | – | 0.5 to 1 (≈ 1.13 to 2.27 µM) | 0.5 to 1 (≈ 1.13 to 2.27 µM) | 0.5 to 1 (≈ 1.13 to 2.27 µM) | – | –
NC[C@H]1O[C@H](O[C@H]2[C@H](O)[C@@H](O[C@H]3O[C@H](CO)[C@@H](O)[C@H](N)[C@H]3O)[C@H](N)C[C@@H]2N)[C@H](N)[C@@H](O)[C@@H]1O [BEKANAMYCIN] | 1.95 (≈ 4.03 µM) | 3.9 (≈ 8.07 µM) | 0.98 (≈ 2.03 µM) | 0.98 (≈ 2.03 µM) | – | – | – | – | – | – | – | – | – | –
Cc1ccccc1C(=O)n1c(-c2cn(-c3ccccc3)nc2-c2ccc(F)cc2)nc2ccccc21 | > 62.5 | > 62.5 | 62.5 (≈ 132 µM) | > 62.5 | 37.2 | 189 | > 10000 | – | – | – | – | – | – | –
Cc1ccc(C(=O)n2c(-c3cn(-c4ccccc4)nc3-c3ccc(C(F)(F)F)cc3)nc3ccccc32)cn1 | 1.95 (≈ 3.72 µM) | 62.5 (≈ 119 µM) | 0.49 (≈ 0.936 µM) | 62.5 (≈ 119 µM) | 2.05 | 153 | > 10000 | – | – | – | – | – | – | –
Cc1ccc(-c2nn(-c3ccccc3)cc2-c2nc3ccccc3n2C(=O)c2ccc(C)nc2)cc1 | 62.5 (≈ 133 µM) | 62.5 (≈ 133 µM) | 0.98 (≈ 2.09 µM) | 62.5 (≈ 133 µM) | 16.9 | 145 | > 10000 | 15.6 (≈ 33.3 µM) | – | – | – | – | – | –
Cc1cncc(C(=O)n2c(-c3cn(-c4ccccc4)nc3-c3ccc(F)cc3)nc3ccccc32)c1 | 62.5 (≈ 132 µM) | 62.5 (≈ 132 µM) | 15.6 (≈ 32.9 µM) | 62.5 (≈ 132 µM) | 22.1 | 119 | > 10000 | – | – | – | – | – | – | –
Cc1ccc(C(=O)n2c(-c3cn(-c4ccccc4)nc3-c3ccc(C)cc3)nc3ccccc32)cc1 | 3.9 (≈ 8.32 µM) | 31.2 (≈ 66.7 µM) | 0.98 (≈ 2.09 µM) | > 62.5 | 3.06 | 176 | > 10000 | – | – | – | – | – | – | –
O=C(c1ccncc1)n1c(-c2cn(-c3ccccc3)nc2-c2ccc(C(F)(F)F)cc2)nc2ccccc21 | > 62.5 | 62.5 (≈ 123 µM) | 7.8 (≈ 15.3 µM) | 62.5 (≈ 123 µM) | 32.7 | 135 | > 10000 | – | – | – | – | – | – | –
O=C(c1ccncc1)n1c(-c2cn(-c3ccccc3)nc2-c2ccc(F)cc2)nc2ccccc21 | > 62.5 | 62.5 (≈ 136 µM) | 31.2 (≈ 68 µM) | 62.5 (≈ 136 µM) | 33.9 | 151 | > 10000 | – | – | – | – | – | – | –
Cc1cncc(C(=O)n2c(-c3cn(-c4ccccc4)nc3-c3ccc(C(F)(F)F)cc3)nc3ccccc32)c1 | 62.5 (≈ 119 µM) | 62.5 (≈ 119 µM) | 0.98 (≈ 1.87 µM) | 62.5 (≈ 119 µM) | 22.9 | 123 | > 10000 | 7.82 (≈ 14.9 µM) | Active | – | – | – | – | –
O=C(c1ccc(Cl)cc1)n1c(-c2cn(-c3ccccc3)nc2-c2ccc(F)cc2)nc2ccccc21 | 62.5 (≈ 127 µM) | > 62.5 | 62.5 (≈ 127 µM) | > 62.5 | 36.1 | 179 | > 10000 | – | – | – | – | – | – | –
Cc1ccc(C(=O)n2c(-c3cn(-c4ccccc4)nc3-c3ccc(F)cc3)nc3ccccc32)cc1 | 62.5 (≈ 132 µM) | > 62.5 | 0.98 (≈ 2.07 µM) | > 62.5 | 30.3 | 178 | > 10000 | – | – | – | – | – | – | –
Cc1ccc(-c2nn(-c3ccccc3)cc2-c2nc3ccccc3n2C(=O)c2ccccc2C)cc1 | 62.5 (≈ 133 µM) | > 62.5 | 62.5 (≈ 133 µM) | > 62.5 | 35.4 | 176 | > 10000 | – | – | – | – | – | – | –
O=C(Nc1cccc(O)c1C(=O)O)c1ccc(-c2ccccc2)c(Oc2ccccc2)c1 | – | – | – | – | – | – | – | – | – | – | – | – | 0.004 | 0.004
Cc1cccc(C(=O)n2c(-c3cn(-c4ccccc4)nc3-c3ccc(F)cc3)nc3ccccc32)c1 | 62.5 (≈ 132 µM) | 31.2 (≈ 66.1 µM) | 31.2 (≈ 66.1 µM) | 62.5 (≈ 132 µM) | 34.1 | 148 | > 10000 | – | – | – | – | – | – | –
O=C(c1cccnc1)n1c(-c2cn(-c3ccccc3)nc2-c2ccc(C(F)(F)F)cc2)nc2ccccc21 | 62.5 (≈ 123 µM) | 62.5 (≈ 123 µM) | 1.95 (≈ 3.83 µM) | 62.5 (≈ 123 µM) | 15.2 | 158 | > 10000 | 15.6 (≈ 30.7 µM) | – | – | – | – | – | –
Cc1ccc(C(=O)n2c(-c3cn(-c4ccccc4)nc3-c3ccc(F)cc3)nc3ccccc32)cn1 | 1.95 (≈ 4.12 µM) | 62.5 (≈ 132 µM) | 0.98 (≈ 2.07 µM) | 62.5 (≈ 132 µM) | 4.02 | 137 | > 10000 | 15.6 (≈ 33 µM) | – | – | – | – | – | –
O=C(c1ccccc1)n1c(-c2cn(-c3ccccc3)nc2-c2ccc(F)cc2)nc2ccccc21 | 62.5 (≈ 136 µM) | 62.5 (≈ 136 µM) | 7.8 (≈ 17 µM) | > 62.5 | 22.1 | 180 | > 10000 | – | – | – | – | – | – | –
O=C(c1ccccc1)n1c(-c2cn(-c3ccccc3)nc2-c2ccc(C(F)(F)F)cc2)nc2ccccc21 | 62.5 (≈ 123 µM) | 62.5 (≈ 123 µM) | 15.6 (≈ 30.7 µM) | > 62.5 | 25.7 | 168 | > 10000 | – | – | – | – | – | – | –
